Test system: MV-4-11 cells
Assay: Gene expression microarray analysis (Affymetrix PrimeView) and GSEA
Format: cell-based, human
Design: RFU PODN (11730768_x_at) / Fold change /veh PODN (11730768_x_at) / RFU LINC00158 (11744669_a_at) / Fold change /veh LINC00158 (11744669_a_at) / RFU DUSP10 (11751237_a_at) / Fold change /veh DUSP10 (11751237_a_at) / RFU ID3 (11757404_x_at) / Fold change /veh ID3 (11757404_x_at) / RFU PLEKHG5 (11737974_s_at) / Fold change /veh PLEKHG5 (11737974_s_at) / RFU LRRC4B (11730491_at) / Fold change /veh LRRC4B (11730491_at) / RFU GIMAP4 (11747438_a_at) / Fold change /veh GIMAP4 (11747438_a_at) / RFU KRT8 (11758183_x_at) / Fold change /veh KRT8 (11758183_x_at) / RFU CNN1 (11734310_a_at) / Fold change /veh CNN1 (11734310_a_at) / RFU VPS37D (11726825_at) / Fold change /veh VPS37D (11726825_at) / RFU C10orf10 (11716522_x_at) / Fold change /veh C10orf10 (11716522_x_at) / RFU KIR2DL2 /// KIR2DL4 /// KIR2DL5A /// KIR2DL5B /// KIR2DS1 /// KIR2DS2 /// KIR2DS3 /// KIR2DS4 /// KIR3DL3 /// KIR3DL3 /// KIR3DS1 (11738374_at) / Fold change /veh KIR2DL2 /// KIR2DL4 /// KIR2DL5A /// KIR2DL5B /// KIR2DS1 /// KIR2DS2 /// KIR2DS3 /// KIR2DS4 /// KIR3DL3 /// KIR3DL3 /// KIR3DS1 (11738374_at) / RFU C1QL1 (11718748_at) / Fold change /veh C1QL1 (11718748_at) / RFU TMPRSS4 (11747572_a_at) / Fold change /veh TMPRSS4 (11747572_a_at) / RFU HAMP (11756126_x_at) / Fold change /veh HAMP (11756126_x_at) / RFU RNFT2 (11725882_a_at) / Fold change /veh RNFT2 (11725882_a_at) / RFU NR4A2 (11747474_a_at) / Fold change /veh NR4A2 (11747474_a_at) / RFU ABCC12 (11746883_a_at) / Fold change /veh ABCC12 (11746883_a_at) / RFU TMEM136 (11760407_x_at) / Fold change /veh TMEM136 (11760407_x_at) / RFU CLDN22 /// WWC2 (11732394_at) / Fold change /veh CLDN22 /// WWC2 (11732394_at) / RFU HLA-DPB1 (11760878_x_at) / Fold change /veh HLA-DPB1 (11760878_x_at) / RFU SPINT1 (11716480_a_at) / Fold change /veh SPINT1 (11716480_a_at) / RFU GAP43 (11754022_s_at) / Fold change /veh GAP43 (11754022_s_at) / RFU A4GNT (11735810_at) / Fold change /veh A4GNT (11735810_at) / RFU PRB3 (11715151_x_at) / Fold change /veh PRB3 (11715151_x_at) / RFU TUBB4B (11761932_at) / Fold change /veh TUBB4B (11761932_at) / RFU CAPN14 (11732068_a_at) / Fold change /veh CAPN14 (11732068_a_at) / RFU TMCC2 (11721928_a_at) / Fold change /veh TMCC2 (11721928_a_at) / RFU IRGQ (11745062_a_at) / Fold change /veh IRGQ (11745062_a_at) / RFU FAM174B (11720279_a_at) / Fold change /veh FAM174B (11720279_a_at) / RFU TMPRSS4 (11748680_a_at) / Fold change /veh TMPRSS4 (11748680_a_at) / RFU FAM212B (11763350_a_at) / Fold change /veh FAM212B (11763350_a_at) / RFU PLEKHG5 (11743358_a_at) / Fold change /veh PLEKHG5 (11743358_a_at) / RFU ZSCAN30 (11745921_a_at) / Fold change /veh ZSCAN30 (11745921_a_at) / RFU CMKLR1 (11741424_a_at) / Fold change /veh CMKLR1 (11741424_a_at) / RFU LOC101060620 /// MAPK8IP1 (11723275_at) / Fold change /veh LOC101060620 /// MAPK8IP1 (11723275_at) / RFU SPTSSB (11747773_x_at) / Fold change /veh SPTSSB (11747773_x_at) / RFU PRSS12 (11739890_at) / Fold change /veh PRSS12 (11739890_at) / RFU BIN1 (11741810_x_at) / Fold change /veh BIN1 (11741810_x_at) / RFU WNT11 (11732464_a_at) / Fold change /veh WNT11 (11732464_a_at) / RFU C10orf10 (11716521_a_at) / Fold change /veh C10orf10 (11716521_a_at) / RFU C5orf56 (11738089_at) / Fold change /veh C5orf56 (11738089_at) / RFU CYB561 (11721691_x_at) / Fold change /veh CYB561 (11721691_x_at) / RFU ANKRD19P (11752326_a_at) / Fold change /veh ANKRD19P (11752326_a_at) / RFU OR2T12 /// OR2T33 /// OR2T8 (11738714_s_at) / Fold change /veh OR2T12 /// OR2T33 /// OR2T8 (11738714_s_at) / RFU VCAN (11748164_a_at) / Fold change /veh VCAN (11748164_a_at) / RFU JSRP1 (11732532_at) / Fold change /veh JSRP1 (11732532_at) / RFU KRTAP10-11 (11738290_x_at) / Fold change /veh KRTAP10-11 (11738290_x_at) / RFU MYO3A (11730013_a_at) / Fold change /veh MYO3A (11730013_a_at) / RFU EBF3 (11725865_a_at) / Fold change /veh EBF3 (11725865_a_at) / RFU CAMK2N1 (11719241_x_at) / Fold change /veh CAMK2N1 (11719241_x_at) / RFU C5orf56 (11738088_a_at) / Fold change /veh C5orf56 (11738088_a_at) / RFU OLFML3 (11715873_a_at) / Fold change /veh OLFML3 (11715873_a_at) / RFU LOC100653217 /// NTM (11731650_a_at) / Fold change /veh LOC100653217 /// NTM (11731650_a_at) / RFU MAPK11 (11762145_a_at) / Fold change /veh MAPK11 (11762145_a_at) / RFU FIZ1 (11724087_x_at) / Fold change /veh FIZ1 (11724087_x_at) / RFU OASL (11726364_x_at) / Fold change /veh OASL (11726364_x_at) / RFU SOX15 (11748057_x_at) / Fold change /veh SOX15 (11748057_x_at) / RFU CD79A (11719716_a_at) / Fold change /veh CD79A (11719716_a_at) / RFU HIST1H1D (11736915_at) / Fold change /veh HIST1H1D (11736915_at) / RFU CASKIN2 (11723855_a_at) / Fold change /veh CASKIN2 (11723855_a_at) / RFU LOC730098 (11760151_x_at) / Fold change /veh LOC730098 (11760151_x_at) / RFU OR4N2 (11742367_at) / Fold change /veh OR4N2 (11742367_at) / RFU PRRT2 (11749266_a_at) / Fold change /veh PRRT2 (11749266_a_at) / RFU SNX32 (11753110_a_at) / Fold change /veh SNX32 (11753110_a_at) / RFU CDHR5 (11726645_a_at) / Fold change /veh CDHR5 (11726645_a_at) / RFU RCAN1 (11760418_a_at) / Fold change /veh RCAN1 (11760418_a_at) / RFU FAM167A (11723789_a_at) / Fold change /veh FAM167A (11723789_a_at) / RFU FAM26E (11764081_at) / Fold change /veh FAM26E (11764081_at) / RFU ISYNA1 (11749810_s_at) / Fold change /veh ISYNA1 (11749810_s_at) / RFU ACY1 (11761880_at) / Fold change /veh ACY1 (11761880_at) / RFU 11764098_at / Fold change /veh 11764098_at / RFU SAMD14 (11745864_x_at) / Fold change /veh SAMD14 (11745864_x_at) / RFU NPB (11741838_a_at) / Fold change /veh NPB (11741838_a_at) / RFU TMPRSS6 (11731388_a_at) / Fold change /veh TMPRSS6 (11731388_a_at) / RFU KRTAP10-2 (11738614_at) / Fold change /veh KRTAP10-2 (11738614_at) / RFU ARHGAP8 /// PRR5-ARHGAP8 (11727945_x_at) / Fold change /veh ARHGAP8 /// PRR5-ARHGAP8 (11727945_x_at) / RFU KRTAP5-7 /// NADSYN1 (11734609_at) / Fold change /veh KRTAP5-7 /// NADSYN1 (11734609_at) / RFU RASL12 (11751679_a_at) / Fold change /veh RASL12 (11751679_a_at) / RFU CDKN2B (11736163_a_at) / Fold change /veh CDKN2B (11736163_a_at) / RFU PRF1 (11729649_at) / Fold change /veh PRF1 (11729649_at) / RFU, ZNF638 /// ZNF638-IT1 / Fold change vs veh, ZNF638 /// ZNF638-IT1 / RFU, PANK3 / Fold change vs veh, PANK3 / RFU, SH3YL1 / Fold change vs veh, SH3YL1 / RFU, ZEB2 / Fold change vs veh, ZEB2 / RFU, NRIP1 / Fold change vs veh, NRIP1 / RFU, PTTG1IP / Fold change vs veh, PTTG1IP / RFU, CAPN2 / Fold change vs veh, CAPN2 / RFU, MED14 / Fold change vs veh, MED14 / RFU, SNORA58 / Fold change vs veh, SNORA58 / RFU, C1orf63 / Fold change vs veh, C1orf63 / RFU, LRRFIP1 / Fold change vs veh, LRRFIP1 / RFU, NDUFAF7 / Fold change vs veh, NDUFAF7 / RFU, SLC12A2 / Fold change vs veh, SLC12A2 / RFU, IBTK / Fold change vs veh, IBTK / RFU, ESF1 / Fold change vs veh, ESF1 / Fold change vs veh, TMEM50B / RFU, TAOK1 / Fold change vs veh, TAOK1 / RFU, ACBD3 / Fold change vs veh, ACBD3 / RFU, TMA16 / Fold change vs veh, TMA16 / RFU, RWDD3 / Fold change vs veh, RWDD3 / RFU, BCAT1 / Fold change vs veh, BCAT1 / RFU, EDEM3 / Fold change vs veh, EDEM3 / RFU, TMEM33 / Fold change vs veh, TMEM33 / RFU, WDR75 / Fold change vs veh, WDR75 / RFU, AHCTF1 / Fold change vs veh, AHCTF1 / RFU, TFRC / Fold change vs veh, TFRC / RFU, ZDHHC17 / Fold change vs veh, ZDHHC17 / RFU, NOM1 / Fold change vs veh, NOM1 / RFU, ARL8B / Fold change vs veh, ARL8B / RFU, ZBTB11 / Fold change vs veh, ZBTB11 / RFU, TAMM41 / Fold change vs veh, TAMM41 / RFU, KIAA1704 /// LOC100996395 / Fold change vs veh, KIAA1704 /// LOC100996395 / RFU, ING1 / Fold change vs veh, ING1 / RFU, TRMT61B / Fold change vs veh, TRMT61B / RFU, FUBP3 / Fold change vs veh, FUBP3 / RFU, TP53 / Fold change vs veh, TP53 / RFU, TNKS2 / Fold change vs veh, TNKS2 / RFU, ZFP14 / Fold change vs veh, ZFP14 / RFU, ACTR2 / Fold change vs veh, ACTR2 / RFU, PPP3R1 / Fold change vs veh, PPP3R1 / RFU, PIK3R1 / Fold change vs veh, PIK3R1 / RFU, HNRNPA1 / Fold change vs veh, HNRNPA1 / RFU, RNF170 / Fold change vs veh, RNF170 / RFU, ZNF28 / Fold change vs veh, ZNF28 / RFU, RNGTT / Fold change vs veh, RNGTT / RFU, OGT / Fold change vs veh, OGT / RFU, BRD1 / Fold change vs veh, BRD1 / RFU, MARS / Fold change vs veh, MARS / RFU, ZNF655 / Fold change vs veh, ZNF655 / RFU, FAHD1 / Fold change vs veh, FAHD1 / RFU, BDP1 / Fold change vs veh, BDP1 / RFU, LRRCC1 / Fold change vs veh, LRRCC1 / RFU, ARID1A / Fold change vs veh, ARID1A / RFU, ZNF146 / Fold change vs veh, ZNF146 / RFU, ZNF330 / Fold change vs veh, ZNF330 / RFU, GPN3 / Fold change vs veh, GPN3 / RFU, C9orf123 / Fold change vs veh, C9orf123 / RFU, N4BP2L2 / Fold change vs veh, N4BP2L2 / RFU, ARFIP1 / Fold change vs veh, ARFIP1 / RFU, FAM179B / Fold change vs veh, FAM179B / RFU, BCL10 / Fold change vs veh, BCL10 / RFU, UHRF1BP1L / Fold change vs veh, UHRF1BP1L / RFU, BET1 / Fold change vs veh, BET1 / RFU, CNOT2 / Fold change vs veh, CNOT2 / RFU, ZNF268 / Fold change vs veh, ZNF268 / Fold change vs veh, ZNF507 / RFU, DGCR2 / Fold change vs veh, DGCR2 / RFU, WDSUB1 / Fold change vs veh, WDSUB1 / Fold change vs veh, HSP90B1 /// MIR3652 / RFU, ADSS / Fold change vs veh, ADSS / RFU, GK / Fold change vs veh, GK / RFU, ZNF148 / Fold change vs veh, ZNF148 / RFU, TAF9 / Fold change vs veh, TAF9 / RFU, SLC1A5 / Fold change vs veh, SLC1A5 / RFU, SLMO2 / Fold change vs veh, SLMO2 / RFU, ABCC4 / Fold change vs veh, ABCC4 / RFU, LOC101060439 /// RAP1B / Fold change vs veh, LOC101060439 /// RAP1B / RFU, RFX7 / Fold change vs veh, RFX7 / RFU, GTPBP10 / Fold change vs veh, GTPBP10 / RFU, CNEP1R1 / Fold change vs veh, CNEP1R1 / RFU, BIVM-ERCC5 /// ERCC5 / Fold change vs veh, BIVM-ERCC5 /// ERCC5 / RFU, ILF3 / Fold change vs veh, ILF3 / RFU 11762660_at / Fold change /veh 11762660_at / RFU VCAN (11757783_s_at) / Fold change /veh VCAN (11757783_s_at) / RFU DDX43 (11728927_at) / Fold change /veh DDX43 (11728927_at) / RFU KRT8 (11758188_x_at) / Fold change /veh KRT8 (11758188_x_at) / RFU NKD1 (11759106_at) / Fold change /veh NKD1 (11759106_at) / RFU SRD5A1 (11742802_a_at) / Fold change /veh SRD5A1 (11742802_a_at) / RFU TPSAB1 /// TPSB2 (11721975_s_at) / Fold change /veh TPSAB1 /// TPSB2 (11721975_s_at) / RFU GSTM3 (11746129_a_at) / Fold change /veh GSTM3 (11746129_a_at) / RFU IL23R (11737362_x_at) / Fold change /veh IL23R (11737362_x_at) / RFU TMEM51 (11727254_a_at) / Fold change /veh TMEM51 (11727254_a_at) / RFU PIWIL2 (11732686_x_at) / Fold change /veh PIWIL2 (11732686_x_at) / RFU ORM1 (11744905_x_at) / Fold change /veh ORM1 (11744905_x_at) / RFU CCDC152 (11743942_at) / Fold change /veh CCDC152 (11743942_at) / RFU ECM1 (11717891_a_at) / Fold change /veh ECM1 (11717891_a_at) / RFU IL23R (11748794_a_at) / Fold change /veh IL23R (11748794_a_at) / RFU TNFAIP8L3 (11732012_x_at) / Fold change /veh TNFAIP8L3 (11732012_x_at) / RFU MBOAT4 (11741988_at) / Fold change /veh MBOAT4 (11741988_at) / RFU 11764193_at / Fold change /veh 11764193_at / RFU TMEM53 (11763286_at) / Fold change /veh TMEM53 (11763286_at) / RFU MAGEB2 (11727129_at) / Fold change /veh MAGEB2 (11727129_at) / RFU TMEM200A (11744735_a_at) / Fold change /veh TMEM200A (11744735_a_at) / RFU CCDC152 (11751479_a_at) / Fold change /veh CCDC152 (11751479_a_at) / RFU FAM211A (11726209_a_at) / Fold change /veh FAM211A (11726209_a_at) / RFU RGS16 (11746705_a_at) / Fold change /veh RGS16 (11746705_a_at) / RFU VCAN (11755009_s_at) / Fold change /veh VCAN (11755009_s_at) / RFU RHOB (11743442_s_at) / Fold change /veh RHOB (11743442_s_at) / RFU RGS16 (11720943_a_at) / Fold change /veh RGS16 (11720943_a_at) / RFU RGS16 (11720944_at) / Fold change /veh RGS16 (11720944_at) / RFU, VPS4B / Fold change vs veh, VPS4B / RFU, CREB1 / Fold change vs veh, CREB1 / RFU, DNAJC13 / Fold change vs veh, DNAJC13 / RFU, GNAQ / Fold change vs veh, GNAQ / RFU, CDK5R1 / Fold change vs veh, CDK5R1 / RFU, ZRANB3 / Fold change vs veh, ZRANB3 / RFU, CUL4A / Fold change vs veh, CUL4A / RFU, CCNY / Fold change vs veh, CCNY / RFU, UFL1 / Fold change vs veh, UFL1 / RFU, COG3 / Fold change vs veh, COG3 / RFU, DIAPH2 / Fold change vs veh, DIAPH2 / RFU, SKA2 / Fold change vs veh, SKA2 / RFU, AFF3 / Fold change vs veh, AFF3 / RFU, LMF1 / Fold change vs veh, LMF1 / RFU, IPO11 / Fold change vs veh, IPO11 / RFU, DFFB / Fold change vs veh, DFFB / RFU, FOXP1 / Fold change vs veh, FOXP1 / RFU, CARD8 / Fold change vs veh, CARD8 / RFU, STRN3 / Fold change vs veh, STRN3 / RFU, ADK / Fold change vs veh, ADK / RFU, RASSF2 / Fold change vs veh, RASSF2 / RFU, WIPF1 / Fold change vs veh, WIPF1 / RFU, LARP1B / Fold change vs veh, LARP1B / RFU, RASA1 / Fold change vs veh, RASA1 / RFU, RB1 / Fold change vs veh, RB1 / RFU, PPFIA1 / Fold change vs veh, PPFIA1 / RFU, MAT2A / Fold change vs veh, MAT2A / RFU, CCT5 / Fold change vs veh, CCT5 / RFU, WDR92 / Fold change vs veh, WDR92 / RFU, CUX1 / Fold change vs veh, CUX1 / RFU, TTC7A / Fold change vs veh, TTC7A / RFU, TMEM135 / Fold change vs veh, TMEM135 / RFU, DEPTOR / Fold change vs veh, DEPTOR / RFU, CPM / Fold change vs veh, CPM / RFU, DNAJB6 / Fold change vs veh, DNAJB6 / RFU, CACNA2D3 / Fold change vs veh, CACNA2D3 / RFU, DTX4 / Fold change vs veh, DTX4 / RFU, TFCP2 / Fold change vs veh, TFCP2 / RFU, GMCL1 /// GMCL1P1 / Fold change vs veh, GMCL1 /// GMCL1P1 / RFU, AEBP2 / Fold change vs veh, AEBP2 / RFU, SNHG1 /// SNORD22 /// SNORD25 /// SNORD26 /// SNORD27 /// SNORD28 /// SNORD29 /// SNORD31 / Fold change vs veh, SNHG1 /// SNORD22 /// SNORD25 /// SNORD26 /// SNORD27 /// SNORD28 /// SNORD29 /// SNORD31 / Fold change (Aza/veh), C12orf56 (ProbeSet 11735607_a_at) / Fold change (ACY-1035/veh), C12orf56 (ProbeSet 11735607_a_at) / Fold change (Aza/veh), FGFR1OP (ProbeSet 11751329_s_at) / Fold change (ACY-1035/veh), FGFR1OP (ProbeSet 11751329_s_at) / Fold change (Aza/veh), VPS36 (ProbeSet 11739960_a_at) / Fold change (ACY-1035/veh), VPS36 (ProbeSet 11739960_a_at) / RFU SYPL1 (11715823_x_at) / Fold change /veh SYPL1 (11715823_x_at) / RFU IGFBP7 (11715501_s_at) / Fold change /veh IGFBP7 (11715501_s_at) / RFU REEP3 (11722064_at) / Fold change /veh REEP3 (11722064_at) / RFU IGLL1 (11728026_x_at) / Fold change /veh IGLL1 (11728026_x_at): dose or concentration left out as unconfirmed
Settings: ProbeSet 11747937_a_at; LIST D

Q: With `Nc1ccc(-c2cccs2)cc1NC(=O)c1ccc2c(c1)cc(C1CC1)n2CCN1CCOCC1` [ACY-1035] as the molecule, how does the “Fold change vs veh, DNAJB6” value read?
A: 0.86

From article PMC5218480 (PLoS ONE, 2017)
